Laboratory results published in paper PMC10712727, “Safety, Tolerability, and Pharmacokinetics of Senaparib, a Novel PARP1/2 Inhibitor, in Chinese Patients With Advanced Solid Tumors: A Phase I Trial” (The Oncologist, 2023).

System: patients with advanced solid tumors
Experiment: Safety: treatment-emergent and senaparib-related adverse events graded per NCI CTCAE v4.03
Format: in vivo
Method: This phase I, open-label, multicenter, dose-escalation, and dose-expansion study was conducted at three national clinical institutions in China. […] At baseline, all patients enrolled in the dose-escalation phase had to have at least one evaluable lesion, and those in the dose-expansion period had to have at least one measurable lesion, according to Response Evaluation Criteria in Solid Tumors version 1.1 (RECIST v1.1).[16] Entry to the dose-expansion cohort required the presence of a BRCA mutation, with the exception of patients with ovarian carcinoma, fallopian tube carcinoma, and primary peritoneal carcinoma. Full study eligibility criteria are provided in Supplementary Table S1.
Dose escalation was conducted using a modified Fibonacci 3 + 3 method (Supplementary Fig. S1).[17] Patients were administered oral senaparib from a planned starting dose of 2 mg once daily (QD), with preliminary dose escalation to 120 mg via nine dose groups, in order of their entry into the study. At a given dose level, each patient received a single dose of senaparib followed by a 7-day washout period. They then entered a continuous dosing period to confirm the safety and PK profile, in which they received senaparib QD from day 1 to day 21 of each 3-week cycle. Progression to the next higher dose required approval from the Data Safety Monitoring Committee (DSMC) upon review of the safety and PK data of the previous dose. A 50-mg twice-daily (BID) dosing group was added (planned enrollment, n = 6 patients) based on a DSMC review of the safety, PK, and efficacy analysis of the completed QD dose groups in the phase I clinical trial of senaparib dose escalation in Australia (NCT03507543), which commenced prior to the start of this trial.
The dose-expansion period included 3 populations: dose groups in which at least one patient achieved complete response (CR) or partial response (PR) per RECIST v1.1[16] and 1 dose group higher (evaluated for safety), as well as the dose group at the maximum tolerated dose (MTD)/recommended phase II dose (RP2D). Each of these groups included those patients in the respective dose-escalation group plus a planned additional 10 patients (approximately 20 patients in the MTD/RP2D group) with BRCA^mut+ solid tumors (ovarian, breast, or prostate cancer were preferred, and ovarian cancer could be BRCA wild type). Patients received senaparib monotherapy orally QD or BID (50-mg dose only) over each 3-week cycle until disease progression or unacceptable toxicity.
DLTs were predefined toxicities (Supplementary Table S2) recorded over the 7 days following the single-dose administration of senaparib and during the first treatment cycle (day 1-day 21) for each dose group in the dose-escalation period only. The MTD was defined as the maximum dose at which ≤1/6 patients experienced a DLT. Senaparib PK parameters were derived from blood samples collected from patients after the single administration, and at regular intervals during the first cycle of the dose-escalation and dose-expansion periods. Plasma concentrations of senaparib were determined using high-performance liquid chromatography-tandem mass spectrometry. Tumor response was assessed every 6 weeks per RECIST v1.1,[16] recording objective response rate (ORR), disease control rate (DCR), duration of response (DOR), and progression-free survival (PFS) by dose level for all patients and for those harboring BRCA^mut+ tumors.

O=C(c1cc(Cn2c(=O)[nH]c(=O)c3c(F)cccc32)ccc1F)N1CCN(c2ncccn2)CC1 [Senaparib]
TRAEs Grade ≥3, events (40 mg QD n = 3): 0 n ev
TRAEs Grade ≥3, patients (40 mg QD n = 3): 0 n (%)
TRAEs, events (40 mg QD n = 3): 6 n ev
TRAEs, patients (40 mg QD n = 3): 3 (100) n (%)
Vomiting TRAE, All (40 mg QD n = 3): 0 n (%)
Vomiting TRAE, Gr≥3 (40 mg QD n = 3): 0 n (%)
WBC decreased TRAE, All (40 mg QD n = 3): 0 n (%)
WBC decreased TRAE, Gr≥3 (40 mg QD n = 3): 0 n (%)
ALT increased TRAE, All (50 mg BID n = 4): 1 (25.0) n (%)
ALT increased TRAE, Gr≥3 (50 mg BID n = 4): 0 n (%)
AST increased TRAE, All (50 mg BID n = 4): 1 (25.0) n (%)
AST increased TRAE, Gr≥3 (50 mg BID n = 4): 0 n (%)
Anemia TRAE, All (50 mg BID n = 4): 3 (75.0) n (%)
Anemia TRAE, Gr≥3 (50 mg BID n = 4): 2 (50.0) n (%)
Any TEAE, All (50 mg BID n = 4): 4 (100) n (%)
Any TEAE, Gr≥3 (50 mg BID n = 4): 3 (75.0) n (%)
Any TEAE, events (50 mg BID n = 4): 32 n ev
Any TEAE, patients (50 mg BID n = 4): 4 (100) n (%)
Any TRAE, All (50 mg BID n = 4): 4 (100) n (%)
Any TRAE, Gr≥3 (50 mg BID n = 4): 2 (50.0) n (%)
Appetite decreased TRAE, All (50 mg BID n = 4): 0 n (%)
Appetite decreased TRAE, Gr≥3 (50 mg BID n = 4): 0 n (%)
Asthenia TRAE, All (50 mg BID n = 4): 1 (25.0) n (%)
Asthenia TRAE, Gr≥3 (50 mg BID n = 4): 0 n (%)
Blood bilirubin increased TRAE, All (50 mg BID n = 4): 0 n (%)
Blood bilirubin increased TRAE, Gr≥3 (50 mg BID n = 4): 0 n (%)
Blood creatinine increased TRAE, All (50 mg BID n = 4): 0 n (%)
Blood creatinine increased TRAE, Gr≥3 (50 mg BID n = 4): 0 n (%)
Hypokalemia TRAE, All (50 mg BID n = 4): 0 n (%)
Hypokalemia TRAE, Gr≥3 (50 mg BID n = 4): 0 n (%)
Nausea TRAE, All (50 mg BID n = 4): 2 (50.0) n (%)
Nausea TRAE, Gr≥3 (50 mg BID n = 4): 0 n (%)
Neutrophil count decreased TRAE, All (50 mg BID n = 4): 0 n (%)
Neutrophil count decreased TRAE, Gr≥3 (50 mg BID n = 4): 0 n (%)
Platelet count decreased TRAE, All (50 mg BID n = 4): 1 (25.0) n (%)
Platelet count decreased TRAE, Gr≥3 (50 mg BID n = 4): 0 n (%)
SAEs, events (50 mg BID n = 4): 1 n ev
SAEs, patients (50 mg BID n = 4): 1 (25.0) n (%)
TEAE Grade ≥3, events (50 mg BID n = 4): 3 n ev
TEAE Grade ≥3, patients (50 mg BID n = 4): 3 (75.0) n (%)
TEAEs leading to death, events (50 mg BID n = 4): 0 n ev
TEAEs leading to death, patients (50 mg BID n = 4): 0 n (%)
TEAEs leading to dose discontinuation, events (50 mg BID n = 4): 0 n ev
TEAEs leading to dose discontinuation, patients (50 mg BID n = 4): 0 n (%)
TEAEs leading to dose interruption, events (50 mg BID n = 4): 1 n ev
TEAEs leading to dose interruption, patients (50 mg BID n = 4): 1 (25.0) n (%)
TEAEs leading to dose reduction, events (50 mg BID n = 4): 1 n ev
TEAEs leading to dose reduction, patients (50 mg BID n = 4): 1 (25.0) n (%)
TRAEs Grade ≥3, events (50 mg BID n = 4): 2 n ev
TRAEs Grade ≥3, patients (50 mg BID n = 4): 2 (50.0) n (%)
TRAEs, events (50 mg BID n = 4): 26 n ev
TRAEs, patients (50 mg BID n = 4): 4 (100) n (%)
Vomiting TRAE, All (50 mg BID n = 4): 2 (50.0) n (%)
Vomiting TRAE, Gr≥3 (50 mg BID n = 4): 0 n (%)
WBC decreased TRAE, All (50 mg BID n = 4): 2 (50.0) n (%)
WBC decreased TRAE, Gr≥3 (50 mg BID n = 4): 0 n (%)
ALT increased TRAE, All (60 mg QD n = 5): 0 n (%)
ALT increased TRAE, Gr≥3 (60 mg QD n = 5): 0 n (%)
AST increased TRAE, All (60 mg QD n = 5): 0 n (%)
AST increased TRAE, Gr≥3 (60 mg QD n = 5): 0 n (%)
Anemia TRAE, All (60 mg QD n = 5): 0 n (%)
Anemia TRAE, Gr≥3 (60 mg QD n = 5): 0 n (%)
Any TEAE, All (60 mg QD n = 5): 5 (100) n (%)
Any TEAE, Gr≥3 (60 mg QD n = 5): 2 (40.0) n (%)
Any TEAE, events (60 mg QD n = 5): 33 n ev
Any TEAE, patients (60 mg QD n = 5): 5 (100) n (%)
Any TRAE, All (60 mg QD n = 5): 5 (100) n (%)
Any TRAE, Gr≥3 (60 mg QD n = 5): 0 n (%)
Appetite decreased TRAE, All (60 mg QD n = 5): 1 (20.0) n (%)
Appetite decreased TRAE, Gr≥3 (60 mg QD n = 5): 0 n (%)
Asthenia TRAE, All (60 mg QD n = 5): 1 (20.0) n (%)
Asthenia TRAE, Gr≥3 (60 mg QD n = 5): 0 n (%)
Blood bilirubin increased TRAE, All (60 mg QD n = 5): 0 n (%)
Blood bilirubin increased TRAE, Gr≥3 (60 mg QD n = 5): 0 n (%)
Blood creatinine increased TRAE, All (60 mg QD n = 5): 1 (20.0) n (%)
Blood creatinine increased TRAE, Gr≥3 (60 mg QD n = 5): 0 n (%)
Hypokalemia TRAE, All (60 mg QD n = 5): 1 (20.0) n (%)
Hypokalemia TRAE, Gr≥3 (60 mg QD n = 5): 0 n (%)
Nausea TRAE, All (60 mg QD n = 5): 1 (20.0) n (%)
Nausea TRAE, Gr≥3 (60 mg QD n = 5): 0 n (%)
Neutrophil count decreased TRAE, All (60 mg QD n = 5): 1 (20.0) n (%)
Neutrophil count decreased TRAE, Gr≥3 (60 mg QD n = 5): 0 n (%)
Platelet count decreased TRAE, All (60 mg QD n = 5): 2 (40.0) n (%)
Platelet count decreased TRAE, Gr≥3 (60 mg QD n = 5): 0 n (%)
SAEs, events (60 mg QD n = 5): 2 n ev
SAEs, patients (60 mg QD n = 5): 2 (40.0) n (%)
TEAE Grade ≥3, events (60 mg QD n = 5): 2 n ev
TEAE Grade ≥3, patients (60 mg QD n = 5): 2 (40.0) n (%)
TEAEs leading to death, events (60 mg QD n = 5): 0 n ev
TEAEs leading to death, patients (60 mg QD n = 5): 0 n (%)
TEAEs leading to dose discontinuation, events (60 mg QD n = 5): 1 n ev
TEAEs leading to dose discontinuation, patients (60 mg QD n = 5): 1 (20.0) n (%)
TEAEs leading to dose interruption, events (60 mg QD n = 5): 1 n ev
TEAEs leading to dose interruption, patients (60 mg QD n = 5): 1 (20.0) n (%)
TEAEs leading to dose reduction, events (60 mg QD n = 5): 0 n ev
TEAEs leading to dose reduction, patients (60 mg QD n = 5): 0 n (%)
TRAEs Grade ≥3, events (60 mg QD n = 5): 0 n ev
TRAEs Grade ≥3, patients (60 mg QD n = 5): 0 n (%)
TRAEs, events (60 mg QD n = 5): 27 n ev
TRAEs, patients (60 mg QD n = 5): 5 (100) n (%)
Vomiting TRAE, All (60 mg QD n = 5): 0 n (%)
Vomiting TRAE, Gr≥3 (60 mg QD n = 5): 0 n (%)
WBC decreased TRAE, All (60 mg QD n = 5): 2 (40.0) n (%)
WBC decreased TRAE, Gr≥3 (60 mg QD n = 5): 0 n (%)
ALT increased TRAE, All (80 mg QD n = 9): 1 (11.1) n (%)
ALT increased TRAE, Gr≥3 (80 mg QD n = 9): 0 n (%)
AST increased TRAE, All (80 mg QD n = 9): 2 (22.2) n (%)
AST increased TRAE, Gr≥3 (80 mg QD n = 9): 0 n (%)
Anemia TRAE, All (80 mg QD n = 9): 7 (77.8) n (%)
Anemia TRAE, Gr≥3 (80 mg QD n = 9): 3 (33.3) n (%)
Any TEAE, All (80 mg QD n = 9): 9 (100) n (%)
Any TEAE, Gr≥3 (80 mg QD n = 9): 6 (66.7) n (%)
Any TEAE, events (80 mg QD n = 9): 132 n ev
Any TEAE, patients (80 mg QD n = 9): 9 (100) n (%)
Any TRAE, All (80 mg QD n = 9): 9 (100) n (%)
Any TRAE, Gr≥3 (80 mg QD n = 9): 5 (55.6) n (%)
